Reference: patent US4708966A, “Novel anti-inflammatory agents, pharmaceutical compositions and methods for reducing inflammation” (The Procter & Gamble Company, priority 1986, dated 1987)

Assays:
[1] = system: carrageenan rat paw edema; test: Carrageenan Rat Paw Edema Test; type: in vivo, Male Sprague-Dawley rats; conditions: for ED35: 4 h, oral, by regression analysis, read-out: ID35; for inhibition in vivo at 100 mg/kg: po, 100 mg/kg P.O., paw volume 4 h after carrageenan, vs control group, read-out: Percent Inhibiton at 100 mg/kg dose P.O
Description: Carrageenan Rat Paw Edema Test
Male Sprague-Dawley rats (Charles River Laboratories) are weighed and food fasted overnight. The animals are then divided into four to six groups of six animals each according to body weights (average about 145 g) so that each group has about the same average body weight (within 10 g).
The following morning animals are dosed with the test compound and then placed in individual cages. For oral dosing, the drug is suspended in 0.5% methyl cellulose with 2% Tween 80, and delivered via stomach tube in a 5 ml volume.
Paw volumes (0 time) are determined on both hind paws with a mercury displacement device equipped with a transducer and digitizer. One hour after dosing the test compound, the animals are placed in a plastic restrainer and 50 ul of a 1% (w/w) carrageenan solution in 0.9% saline is injected into the ventral surface of the left rear paw. Four hours after the carrageenan injection, the paw volumes are again determined.
The results are expressed as percent inhibition of the mean paw volume of the test group relative to the control group. Statistical differences are determined by one way analysis of variance. ID35 values are determined by regression analysis.

[2] = system: oxazolone-induced inflamed mouse ear; test: Oxazolone-Induced Inflamed Mouse Ear Test (Ox-IMET); type: in vivo, Adult male Cox ICR mice; conditions: topical, 25 ul of 10% in ethanol, 24 h after challenge, vs control group, read-out: Percent Inhibition
Description: Oxazolone-Induced Inflamed Mouse Ear Test ("Ox-IMET")
Adult male Cox ICR mice, 25-35 g, are sensitized by applying 3% oxazolone in olive oil to the clipped abdomen of each animal using a cotton swab. One week later, the mice are challenged on the inner surface of the left ear with 3% oxazolone in aceotone. At the same time 25 ul of the test compound (10% in ethanol) is applied to the outer surface of the same ear. Twenty four hours after the challenge, the animals are sacrificed by cervical dislocation and both ears are removed. A 5 mm punch biopsy is removed from both ears and is weighed to the nearest 0.1 mg on a Cahn electrobalance. Ten animals are used per group. The study usually consists of 4 to 6 groups, of which one is a control group which is challenged on the left ear, but is not treated with a test compound. The results are expressed as percent inhibition of the swelling response compared to the control group. Statistical tests for significance between groups are made using a one way analysis of variance of the ear weight differences.

[3] = system: arachidonic acid-induced inflamed mouse ear; test: Arachidonic Acid-Induced Inflamed Mouse Ear Test; type: in vivo, Adult male Cox ICR mice; conditions: for inhibition in vivo at 50 µg/ear: Mus musculus, 50 ug/ear topical, 3 hours, read-out: Percent Inhibition at 50 ug/ear topical dose; for ID50: topical, by regression analysis
Description: Arachidonic Acid-Induced Inflamed Mouse Ear Test
All drugs are dissolved with arachidonic acid in the vehicle. At the end of 3 hours, animals are sacrificed by cervical dislocation and both ears are removed. A 5 mm punch biopsy is removed from both ears and is weighed to the nearest 0.1 mg on a Cahn electrobalance. Ten animals are used per group. The study usually consists of 4 to 6 groups, of which one is a control group which is treated on the left ear with only arachidonic acid in the vehicle. The results are expressed as percent inhibition of the swelling response compared to the control group. Statistical tests for significance between groups are made using a one way analysis of variance of the ear weight differences. ID50 values are determined by regression analysis.

SMILES | ED35 [1] [mg/kg] | inhibition in vivo at 100 mg/kg [1] [%] | inhibition in vivo at 10 % [2] [%] | inhibition in vivo at 50 µg/ear [3] [%] | ID50 [3] [ug/ear]
C#CC[C@H](C)CC(=O)c1cc(C(C)(C)C)c(O)c(C(C)(C)C)c1 [Compound 17, 4-((S)-(-)-3'-methyl-5'-hexynoyl)-2,6-di-t-butylphenol] | 4.4 | 75.5 | 59.5 |  | 
COC(CC(=O)c1cc(C(C)(C)C)c(O)c(C(C)(C)C)c1)OC [Compound 29, 4-(3',3'-dimethoxypropionyl)-2,6-di-t-butylphenol] | 28.2 | 70.7 |  |  | 
C#CCC(C)(C)CC(=O)c1cc(C(C)(C)C)c(O)c(C(C)(C)C)c1 [Compound 35, 4-(3',3'-dimethyl-5'-hexynoyl)-2,6-di-t-butylphenol] |  | 61.1 |  |  | 
C#CC(C)(C)CC(=O)c1cc(C(C)(C)C)c(O)c(C(C)(C)C)c1 [Compound 9, 4-(3',3'-dimethyl-4'-pentynoyl)-2,6-di-t-butylphenol] |  | 41.7 | 23.2 |  | 
COC(Cc1cc(C(C)(C)C)c(O)c(C(C)(C)C)c1)OC [Compound 33, 4-(2',2'-dimethoxyethyl)-2,6-di-t-butylphenol] |  |  | 54.1 |  | 
COC(CC(=O)CCc1cc(C(C)(C)C)c(O)c(C(C)(C)C)c1)OC [Compound 34, 4-(5',5'-dimethoxy-3'-pentanone)-2,6-di-t-butylphenol] |  | 66.1 |  |  | 
C#CCCCC(=C)c1cc(C(C)(C)C)c(O)c(C(C)(C)C)c1 [Compound 16, 4-(1'-methylidene-5'-hexynyl)-2,6-di-t-butylphenol] |  | 25.7 | 30.3 |  | 
C#CC(=O)CCc1cc(C(C)(C)C)c(O)c(C(C)(C)C)c1 [Compound 10, 4-(4'-pentyn-3'-one)-2,6-di-t-butylphenol] | 24.5 | 92.2 |  | 64.9 | 
C#CCCCC(=O)c1cc([Si](C)(C)C)cc([Si](C)(C)C)c1 [Compound 21, 1-(5'-hexynoyl)-3,5-bis-trimethylsilylbenzene] | ~90 | 41.7 |  |  | 
C#CCCCCC(=O)c1cc(C(C)(C)C)c(O)c(C(C)(C)C)c1 [Compound 23, 4-(6'-heptynoyl)-2,6-di-t-butylphenol] | 17.4 | 67.9 |  |  | 
C=CCCCC(=O)c1cc(C(C)(C)C)c(O)c(C(C)(C)C)c1 [Compound 12, 4-(5'-hexenoyl)-2,6-di-t-butylphenol] | 11.4 | 59.9 | 29.7 |  | 
C#CCC(=O)c1cc(C(C)(C)C)c(O)c(C(C)(C)C)c1 [Compound 3, 4-(3'-butynoyl)-2,6-di-t-butylphenol] | 9.9 | 66.9 |  | 61.6 | 22.7
CC(C)(C)c1cc(C(=O)CC2OCCO2)cc(C(C)(C)C)c1O [Compound 30, 4-(2'-(1",3"-dioxolane)acetyl)-2,6-di-t-butylphenol] | 35.2 | 72.8 | 33.4 | 69.1 | 29.5
C=CCCC(=O)/C=C/c1cc(C(C)(C)C)c(O)c(C(C)(C)C)c1 [Compound 28, 4-((E)-1',6'-heptadiene-3'-one)-2,6-di-t-butylphenol] |  |  | 37.4 |  | 
C#CCCC(=O)CCc1cc(C(C)(C)C)c(O)c(C(C)(C)C)c1 [Compound 24, 4-(6'-heptyn-3'-one)-2,6-di-t-butylphenol] |  |  | 38.2 |  | 
C#CCCCCc1cc(C(C)(C)C)c(O)c(C(C)(C)C)c1 [Compound 15, 4-(5'-hexynyl)-2,6-di-t-butylphenol] | 55.2 | 75.7 | 39.6 |  | 
C#CCCCC(O)c1cc(C(C)(C)C)c(O)c(C(C)(C)C)c1 (stereo not shown) [Compound 14, 4-(1'-hydroxy-5'-hexynyl)-2,6-di-t-butylphenol] | 30 | 54.4 |  |  | 

SMILES | ED35 [1] [mg/kg] | inhibition in vivo at 100 mg/kg [1] [%] | inhibition in vivo at 10 % [2] [%] | inhibition in vivo at 50 µg/ear [3] [%] | ID50 [3] [ug/ear]
C#CCCC(C)C(=O)c1cc(C(C)(C)C)c(O)c(C(C)(C)C)c1 (stereo not shown) [Compound 13, 4-(2'-methyl-5'-hexynoyl)-2,6-di-t-butylphenol] | 17.9 | 69.8 |  | 74.4 | 17.5
C#CCCC(=O)c1cc(C(C)(C)C)c(O)c(C(C)(C)C)c1 [Compound 5, 4-(4'-pentynoyl)-2,6-di-t-butylphenol] | 8.1 | 61.3 | 25.3 |  | 
C#CCC(CC#C)C(=O)CCc1cc(C(C)(C)C)c(O)c(C(C)(C)C)c1 [Compound 25, 4-(4'-(2"-propynyl)-6'-heptyn-3'-one)-2,6-di-t-butylphenol] |  |  | 40.4 |  | 
C=CCCC(=O)c1cc(C(C)(C)C)c(O)c(C(C)(C)C)c1 [Compound 6, 4-(4'-pentenoyl)-2,6-di-t-butylphenol] | 3.3 | 71.2 | 46 |  | 
C#CCC(C)(C)C(=O)c1cc(C(C)(C)C)c(O)c(C(C)(C)C)c1 [Compound 8, 4-(2', 2'-dimethyl-4'-pentynoyl)-2,6-di-t-butylphenol] |  | 50.4 | 38.3 |  | 
C#CCC(C(=O)c1cc(C(C)(C)C)c(O)c(C(C)(C)C)c1)C(OC)OC (stereo not shown) [Compound 7, 4-(2'-dimethoxymethyl-4'-pentynoyl)-2,6-di-t-butylphenol] |  | 53.6 | 40.9 |  | 
C#CCCCC(=O)c1cc([Si](C)(C)C)c(O)c([Si](C)(C)C)c1 [Compound 20, 4-(5'-hexynoyl)-2,6-bis-trimethylsilylphenol] | 34.2 | 73.1 |  |  | 
C#CC(O)c1cc(C(C)(C)C)c(O)c(C(C)(C)C)c1 (stereo not shown) [Compound 2, 4-(1'-hydroxy-2'-propynyl)-2,6-di-t-butylphenol] | 46.8 | 75.6 | 27.3 |  | 
C#CCCCC(=O)c1cc(C(C)(C)C)cc(C(C)(C)C)c1 [Compound 19, 1-(5'-hexynoyl)-3,5-di-t-butylbenzene] | 45.3 | 71.7 |  |  | 
C=C=CC(=O)c1cc(C(C)(C)C)c(O)c(C(C)(C)C)c1 [Compound 4, 4-butadienoyl-2,6-di-t-butylphenol] |  | 64.9 |  | 79.6 | 6.6
C#CCCCCCC(=O)c1cc(C(C)(C)C)c(O)c(C(C)(C)C)c1 [Compound 26, 4-(7'-octynoyl)-2,6-di-t-butylphenol] | 110 | 43.3 |  |  | 
CC(C)(C)c1cc(C(=O)CC2OCCS2)cc(C(C)(C)C)c1O (stereo not shown) [Compound 32, 4-(2'-(1",3"-oxathiolane)acetyl)-2,6-di-t-butylphenol] |  | 50.8 | 44.5 |  | 
CCOC(CC(=O)c1cc(C(C)(C)C)c(O)c(C(C)(C)C)c1)OCC [Compound 31, 4-(3',3'-diethoxypropionyl)-2,6-di-t-butylphenol] |  |  |  | 82.8 | 15.3
C#CCCCC(=O)c1cc(C(F)(F)F)cc(C(F)(F)F)c1 [Compound 22, 1-(5'-hexynoyl)-3,5-bis(trifluoromethyl)benzene] |  | 47 |  |  | 
C#CC(=O)c1cc(C(C)(C)C)c(O)c(C(C)(C)C)c1 [Compound 1, 4-propynoyl-2,6-di-t-butylphenol] | 40 | 65 |  |  | 
C#CC[C@@H](C)CC(=O)c1cc(C(C)(C)C)c(O)c(C(C)(C)C)c1 [Compound 18, 4-((R)-(+)-3'-methyl-5'-hexynoyl)-2,6-di-t-butylphenol] | 2.5 | 72 | 54.5 |  | 
C#CC(=O)/C=C/c1cc(C(C)(C)C)c(O)c(C(C)(C)C)c1 [Compound 27, 4-((E)-1'-penten-4'-yn-3'-one)-2,6-di-t-butylphenol] | 28.3 | 62.8 |  | 34.8 | 52.4
